Patent US20240391965A1, “STAPLED ANTIMICROBIAL PEPTIDES (STAMPS) AND USES THEREOF” (Lytica Therapeutics, Inc., priority 2021, published 2024)
Values after ≈ are worked out from the molar mass of the structure shown. Starred links: 1 amine or outer side, 2 acyl side, 3 side chain; linkers in the order of their positions; H or OH if unused. Positions of bridges follow the written chain, without caps; N, C: chain ends. Residues, ends and D or L forms follow the SMILES beside them. 2,2'Bipyridine(5,5'-diCH2) = c1cc(-c2ccc(C[*:2])cn2)ncc1C[*:1]; Naphthalene(2,6-diCH2) = c1cc2cc(C[*:2])ccc2cc1C[*:1]; mXylylene = c1cc(C[*:1])cc(C[*:2])c1; pXylylene = c1cc(C[*:2])ccc1C[*:1]

Key:
[1] = 48 hours cytotoxicity assay (CellTiter-Glo), liver toxicity; type: cell-based, human; conditions: 48 hours of incubation, CellTiter-Glo; read-out: Inhibitory Concentration at 50% Cytotoxicity (IC50) Human Liver Cells (HepG2)
Method in brief: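 HepG2 cells in EMEM with 10% FBS, allowed to attach 4 h, then exposed to serially diluted StAMPs or vehicle for 48 h at 37 °C. Viability read by CellTiter-Glo luminescence.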

[2] = 90 minute cytotoxicity assay (LDH release), renal toxicity; type: cell-based; conditions: 90 minutes of incubation, LDH release; read-out: Inhibitory Concentration at 50% Cytotoxicity (IC50) Human Renal Proximal Tubule Epithelial Cells (RPTEC)
Method in brief: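 RPTEC plated overnight, given fresh medium, then exposed to serial peptide dilutions or vehicle for 90 min at 37° C. Medium LDH measured by 10 min reagent incubation and absorbance at 490 nm.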

[3] = system: Escherichia coli (E. coli); type: cell-based; conditions: microbroth dilution, 20-24 hours at 37° C.
Method in brief: (§1)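 Minimum inhibitory concentrations come from a CLSI-adapted broth microdilution. Cells grew in Mueller-Hinton or cation-adjusted Mueller-Hinton broth, were exposed to peptide dilutions at 5×10^5 CFU/ml, and were read by eye after 20-24 h at 37 °C.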

[4] = system: Staphylococcus aureus (S. aureus); type: cell-based; conditions: microbroth dilution, 20-24 hours at 37° C.
Method in brief: as §1

[5] = system: Acinetobacter baumannii (A. baumannii); type: cell-based; conditions: microbroth dilution, 20-24 hours at 37° C.
Method in brief: as §1

[6] = system: Pseudomonas aeruginosa (P. aeruginosa); type: cell-based; conditions: microbroth dilution, 20-24 hours at 37° C.
Method in brief: as §1

[7] = system: Klebsiella pneumoniae (K. pneumoniae); type: cell-based; conditions: microbroth dilution, 20-24 hours at 37° C.
Method in brief: as §1

Compound | IC50 [1] | IC50 [2] | Minimum Inhibitory Concentration (MIC) E. coli [3] | Minimum Inhibitory Concentration (MIC) S. aureus [4] | Minimum Inhibitory Concentration (MIC) A. baumannii [5] | Minimum Inhibitory Concentration (MIC) P. aeruginosa [6] | Minimum Inhibitory Concentration (MIC) K. pneumoniae [7]
CC[C@H](C)[C@H](NC(=O)CN)C(=O)N[C@@H](Cc1ccccc1)C(=O)N[C@@H](CO)C(=O)N[C@@H](CCCCN)C(=O)N[C@@H](CC(C)C)C(=O)N[C@@H](C)C(=O)NCC(=O)N[C@@H](CCCCN)C(=O)N[C@@H](CCCCN)C(=O)N[C@H](C(=O)N[C@@H](CCCCN)C(=O)N[C@@H](CC(N)=O)C(=O)N[C@@H](CC(C)C)C(=O)N[C@H]1CSCc2cccc(c2)CSC[C@@H](C(=O)N[C@@H](CCCCN)C(=O)NCC(N)=O)NC(=O)CNC(=O)[C@H](CO)NC(=O)[C@H]([C@@H](C)CC)NC1=O)[C@@H](C)CC [compound 29] (H-GIFSKLAGKKIKNLCISGCKG-NH2; linker 15-19 via mXylylene) | ~200 µg/mL (≈ 88.2 µM) | > 200 µg/mL | 64 µg/mL | >64 µg/mL | 16 µg/mL | 64 µg/mL | >64 µg/mL
CC[C@H](C)[C@H](NC(=O)CN)C(=O)N[C@@H](Cc1ccccc1)C(=O)N[C@H]1CSCc2ccc(nc2)-c2ccc(cn2)CSC[C@@H](C(=O)N[C@@H](CCCCN)C(=O)N[C@@H](CC(N)=O)C(=O)N[C@@H](CC(C)C)C(=O)N[C@@H](CC(C)C)C(=O)N[C@H](C(=O)N[C@@H](CO)C(=O)NCC(=O)N[C@@H](CC(C)C)C(=O)N[C@@H](CCCCN)C(=O)NCC(N)=O)[C@@H](C)CC)NC(=O)[C@H](CCCCN)NC(=O)[C@H](CCCCN)NC(=O)CNC(=O)[C@H](C)NC(=O)[C@H](CC(C)C)NC(=O)[C@H](CCCCN)NC1=O [compound 57] (H-GIFCKLAGKKCKNLLISGLKG-NH2; linker 4-11 via 2,2'Bipyridine(5,5'-diCH2); N-terminus assumed) | 103 µg/mL (≈ 43.4 µM) | > 200 µg/mL | 16 µg/mL | >64 µg/mL | 16 µg/mL | >64 µg/mL | >64 µg/mL
CC[C@H](C)[C@H](NC(=O)[C@H](CC(C)C)NC(=O)[C@H](CC(C)C)NC(=O)[C@H](CC(N)=O)NC(=O)[C@H](CCCCN)NC(=O)[C@@H](NC(=O)[C@H](CCCCN)NC(=O)[C@@H]1CSCc2ccc3cc(ccc3c2)CSC[C@H](NC(=O)CN)C(=O)N[C@@H](Cc2ccccc2)C(=O)N[C@@H](CO)C(=O)N[C@@H](CCCCN)C(=O)N[C@@H](CC(C)C)C(=O)N[C@@H](C)C(=O)NCC(=O)N1)[C@@H](C)CC)C(=O)N[C@@H](CO)C(=O)NCC(=O)N[C@@H](CC(C)C)C(=O)N[C@@H](CCCCN)C(=O)NCC(N)=O [compound 52] (H-GCFSKLAGCKIKNLLISGLKG-NH2; linker 2-9 via Naphthalene(2,6-diCH2); N-terminus assumed) | 10 µg/mL (≈ 4.34 µM) | > 200 µg/mL | 32 µg/mL | >64 µg/mL | 32 µg/mL | >64 µg/mL | >64 µg/mL
CC[C@H](C)[C@H](NC(=O)[C@H](CC(C)C)NC(=O)[C@H](CC(C)C)NC(=O)[C@H](CC(N)=O)NC(=O)[C@H](CCCCN)NC(=O)[C@@H](NC(=O)[C@H](CCCCN)NC(=O)[C@H](CCCCN)NC(=O)[C@@H]1CSCc2ccc3cc(ccc3c2)CSC[C@H](N)C(=O)N[C@@H]([C@@H](C)CC)C(=O)N[C@@H](Cc2ccccc2)C(=O)N[C@@H](CO)C(=O)N[C@@H](CCCCN)C(=O)N[C@@H](CC(C)C)C(=O)N[C@@H](C)C(=O)N1)[C@@H](C)CC)C(=O)N[C@@H](CO)C(=O)NCC(=O)N[C@@H](CC(C)C)C(=O)N[C@@H](CCCCN)C(=O)NCC(N)=O [compound 50] (H-CIFSKLACKKIKNLLISGLKG-NH2; linker 1-8 via Naphthalene(2,6-diCH2); N-terminus assumed) | 103 µg/mL (≈ 42.4 µM) | 17 µg/mL (≈ 7 µM) | 16 µg/mL | 64 µg/mL | 8 µg/mL | >64 µg/mL | 32 µg/mL
CC[C@H](C)[C@H](NC(=O)CN)C(=O)N[C@@H](Cc1ccccc1)C(=O)N[C@@H](CO)C(=O)N[C@@H](CCCCN)C(=O)N[C@@H](CC(C)C)C(=O)N[C@@H](C)C(=O)NCC(=O)N[C@@H](CCCCN)C(=O)N[C@@H](CCCCN)C(=O)N[C@H](C(=O)N[C@H]1CSCc2ccc(cc2)CSC[C@@H](C(=O)N[C@@H](CO)C(=O)NCC(=O)N[C@@H](CC(C)C)C(=O)N[C@@H](CCCCN)C(=O)NCC(N)=O)NC(=O)[C@H](CC(C)C)NC(=O)[C@H](CC(C)C)NC(=O)[C@H](CC(N)=O)NC1=O)[C@@H](C)CC [compound 21] (H-GIFSKLAGKKICNLLCSGLKG-NH2; linker 12-16 via pXylylene) | 200 µg/mL (≈ 88.8 µM) | 96 µg/mL (≈ 42.6 µM) | 8 µg/mL | >64 µg/mL | 16 µg/mL | 32 µg/mL | 32 µg/mL
CC[C@H](C)[C@H](NC(=O)CN)C(=O)N[C@@H](Cc1ccccc1)C(=O)N[C@@H](CO)C(=O)N[C@@H](CCCCN)C(=O)N[C@@H](CC(C)C)C(=O)N[C@H]1CSCc2ccc3cc(ccc3c2)CSC[C@@H](C(=O)N[C@@H](CC(C)C)C(=O)N[C@H](C(=O)N[C@@H](CO)C(=O)NCC(=O)N[C@@H](CC(C)C)C(=O)N[C@@H](CCCCN)C(=O)NCC(N)=O)[C@@H](C)CC)NC(=O)[C@H](CC(N)=O)NC(=O)[C@H](CCCCN)NC(=O)[C@H]([C@@H](C)CC)NC(=O)[C@H](CCCCN)NC(=O)[C@H](CCCCN)NC(=O)CNC1=O [compound 87] (H-GIFSKLCGKKIKNCLISGLKG-NH2; linker 7-14 via Naphthalene(2,6-diCH2)) | 54 µg/mL (≈ 22.9 µM) | 44 µg/mL (≈ 18.7 µM) | 4 µg/mL | 64 µg/mL | 4 µg/mL | 8 µg/mL | 8 µg/mL
CC[C@H](C)[C@H](NC(=O)CN)C(=O)N[C@@H](Cc1ccccc1)C(=O)N[C@@H](CO)C(=O)N[C@@H](CCCCN)C(=O)N[C@@H](CC(C)C)C(=O)N[C@@H](C)C(=O)N[C@H]1CSCc2ccc(cc2)CSC[C@@H](C(=O)N[C@@H](CC(N)=O)C(=O)N[C@@H](CC(C)C)C(=O)N[C@@H](CC(C)C)C(=O)N[C@H](C(=O)N[C@@H](CO)C(=O)NCC(=O)N[C@@H](CC(C)C)C(=O)N[C@@H](CCCCN)C(=O)NCC(N)=O)[C@@H](C)CC)NC(=O)[C@H]([C@@H](C)CC)NC(=O)[C@H](CCCCN)NC(=O)[C@H](CCCCN)NC1=O [compound 11] (H-GIFSKLACKKICNLLISGLKG-NH2; linker 8-12 via pXylylene) | 23 µg/mL (≈ 9.97 µM) | 16 µg/mL (≈ 6.93 µM) | 4 µg/mL | 32 µg/mL | 4 µg/mL | 8 µg/mL | 8 µg/mL
